The values that follow come from article PMC2196141 (The Journal of Experimental Medicine, 1997).

In the assay the target is T1, CPP-32 (Homo sapiens, UniProt P42574).
T1 sequence (P42574 29-175 limits assumed): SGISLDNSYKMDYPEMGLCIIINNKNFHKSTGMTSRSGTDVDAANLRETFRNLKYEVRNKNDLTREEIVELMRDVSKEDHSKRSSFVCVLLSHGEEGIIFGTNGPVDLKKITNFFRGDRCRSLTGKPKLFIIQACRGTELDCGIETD
Nature of the assay: S-nitrosylation of purified p17. The format is biochemical.

As for `[N]=O` [NO, nitric oxide], the “p17 wt / S-nitrosylation / S-NO/protein” value came out at 1 ± 0.04 mol/mol.
